Experimental data published in the NIST ThermoML archive (doi:10.1016/j.fluid.2010.10.028).

Test: xn = mol fraction of the nth substance listed
Details: Liquid, Vibrating tube method

CC(C)=O [acetone] + CCCCCCC
Details	mass density [kg/m3]
367.48 K, 69840 kPa, x1 = 0.8992	761.04
367.48 K, 74790 kPa, x1 = 0.7024	736.93
367.48 K, 74820 kPa, x1 = 0.4	764.83
367.48 K, 74820 kPa, x1 = 0.8992	764.83
367.48 K, 74880 kPa, x1 = 0.611	727.57
367.48 K, 79790 kPa, x1 = 0.4	768.48
367.48 K, 79790 kPa, x1 = 0.8992	768.48
367.48 K, 84760 kPa, x1 = 0.7024	743.91
367.48 K, 84780 kPa, x1 = 0.4	772.02
367.48 K, 84780 kPa, x1 = 0.8992	772.02
367.48 K, 84860 kPa, x1 = 0.611	734.42
367.48 K, 89740 kPa, x1 = 0.4	775.41
367.48 K, 89740 kPa, x1 = 0.8992	775.41
367.48 K, 89840 kPa, x1 = 0.611	737.67
367.48 K, 94810 kPa, x1 = 0.611	740.81
367.48 K, 99700 kPa, x1 = 0.4	781.91
367.48 K, 99700 kPa, x1 = 0.8992	781.91
367.48 K, 104670 kPa, x1 = 0.4	785.01
367.48 K, 104670 kPa, x1 = 0.8992	785.01
367.48 K, 104780 kPa, x1 = 0.611	746.78
367.48 K, 109630 kPa, x1 = 0.4	788.01
367.48 K, 109630 kPa, x1 = 0.8992	788.01
367.48 K, 114860 kPa, x1 = 0.611	752.48
367.48 K, 119560 kPa, x1 = 0.4	793.8
367.48 K, 119560 kPa, x1 = 0.8992	793.8
367.48 K, 119860 kPa, x1 = 0.611	755.19
367.48 K, 124530 kPa, x1 = 0.4	796.59
367.48 K, 124530 kPa, x1 = 0.8992	796.59
367.48 K, 129810 kPa, x1 = 0.4	799.46
367.48 K, 129810 kPa, x1 = 0.8992	799.46
367.49 K, 1150 kPa, x1 = 0.492	636.24
367.49 K, 1160 kPa, x1 = 0.801	665.36
367.49 K, 1370 kPa, x1 = 0.4	680.97
367.49 K, 1370 kPa, x1 = 0.8992	680.97
367.49 K, 4860 kPa, x1 = 0.801	672.53
367.49 K, 4870 kPa, x1 = 0.492	643.34
367.49 K, 4870 kPa, x1 = 0.611	651.91
367.49 K, 9840 kPa, x1 = 0.801	681.17
367.49 K, 9860 kPa, x1 = 0.492	651.84
367.49 K, 14860 kPa, x1 = 0.801	688.96
367.49 K, 14870 kPa, x1 = 0.492	659.41
367.49 K, 14880 kPa, x1 = 0.611	668.22
367.49 K, 19850 kPa, x1 = 0.801	696.01
367.49 K, 19860 kPa, x1 = 0.492	666.25
367.49 K, 24850 kPa, x1 = 0.801	702.51
367.49 K, 29860 kPa, x1 = 0.801	708.54
367.49 K, 34850 kPa, x1 = 0.492	683.77
367.49 K, 34860 kPa, x1 = 0.801	714.16
367.49 K, 34950 kPa, x1 = 0.4	729.18
367.49 K, 34950 kPa, x1 = 0.8992	729.18
367.49 K, 39860 kPa, x1 = 0.611	698.15
367.49 K, 44850 kPa, x1 = 0.492	693.62
367.49 K, 54840 kPa, x1 = 0.801	733.6
367.49 K, 59920 kPa, x1 = 0.611	716.21
367.49 K, 69900 kPa, x1 = 0.611	723.93
367.49 K, 79870 kPa, x1 = 0.611	731.07
367.49 K, 94730 kPa, x1 = 0.4	778.72
367.49 K, 94730 kPa, x1 = 0.8992	778.72
367.49 K, 99800 kPa, x1 = 0.611	743.84
367.49 K, 99840 kPa, x1 = 0.492	733.62
367.49 K, 104810 kPa, x1 = 0.492	736.49
367.49 K, 109800 kPa, x1 = 0.492	739.28
367.49 K, 109850 kPa, x1 = 0.611	749.68
367.49 K, 114600 kPa, x1 = 0.4	790.95
367.49 K, 114600 kPa, x1 = 0.8992	790.95
367.49 K, 114760 kPa, x1 = 0.492	742
367.49 K, 119830 kPa, x1 = 0.492	744.68
367.49 K, 124840 kPa, x1 = 0.492	747.26
367.49 K, 124860 kPa, x1 = 0.611	757.81
367.49 K, 129850 kPa, x1 = 0.492	749.77
367.49 K, 129850 kPa, x1 = 0.611	760.39
367.5 K, 24850 kPa, x1 = 0.492	672.52
367.5 K, 29850 kPa, x1 = 0.492	678.35
367.5 K, 39850 kPa, x1 = 0.801	719.44
367.5 K, 39860 kPa, x1 = 0.492	688.84
367.5 K, 44870 kPa, x1 = 0.801	724.43
367.5 K, 49850 kPa, x1 = 0.492	698.13
367.5 K, 49850 kPa, x1 = 0.801	729.14
367.5 K, 54850 kPa, x1 = 0.492	702.41
367.5 K, 59830 kPa, x1 = 0.801	737.85
367.5 K, 59870 kPa, x1 = 0.492	706.5
367.5 K, 64830 kPa, x1 = 0.492	710.35
367.5 K, 64930 kPa, x1 = 0.801	742.02
367.5 K, 69830 kPa, x1 = 0.492	714.07
367.5 K, 69910 kPa, x1 = 0.801	745.93
367.5 K, 74910 kPa, x1 = 0.801	749.67
367.5 K, 74930 kPa, x1 = 0.492	717.72
367.5 K, 79900 kPa, x1 = 0.801	753.27
367.5 K, 79920 kPa, x1 = 0.492	721.13
367.5 K, 84870 kPa, x1 = 0.801	756.74
367.5 K, 84880 kPa, x1 = 0.492	724.42
